# Source: ChEMBL document CHEMBL5543154, “Structural Elucidation and Antiviral Activity of Covalent Cathepsin L Inhibitors” (J Med Chem, 2024)
# Tests used:
# [1] = target: Procathepsin L (Homo sapiens) (UniProt P07711); experiment: Binding affinity to Cathepsin L (unknown origin) expressed in Komagataella pastoris GS115 assessed as thermal stabilization by mesuring melting temperature by nanoDSF analysis
# [2] = Cytotoxicity against african green monkey Vero 76 cells assessed as reduction in cell viability incubated for 48 hrs by neutral red uptake assay; assay type: toxicity, cell-based; conditions: chlorocebus sabaeus
# [3] = test system: SARS-CoV-2; assay type: functional, Severe acute respiratory syndrome coronavirus 2, Omicron, Vero; conditions: dose 100 nM; time 24 hrs
# [4] = test system: SARS-CoV-2; experiment: Antiviral activity against SARS CoV-2 USA-WA1/2020 infected in african green monkey Vero 76 cells assessed as virus-induced cytopathic effect incubated for 5 days by neutral red uptake assay; assay type: functional, organism-based; conditions: Severe acute respiratory syndrome coronavirus 2, USA-WA1/2020, Vero 76, 120 h
# Chain of Procathepsin L (Homo sapiens) (P07711 114-333 limits assumed): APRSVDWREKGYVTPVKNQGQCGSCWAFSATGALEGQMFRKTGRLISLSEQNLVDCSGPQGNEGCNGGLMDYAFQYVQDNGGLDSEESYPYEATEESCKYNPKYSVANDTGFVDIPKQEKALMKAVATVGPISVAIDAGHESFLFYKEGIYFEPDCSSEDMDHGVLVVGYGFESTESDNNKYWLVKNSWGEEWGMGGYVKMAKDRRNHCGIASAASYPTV
Structure (SMILES),ΔTm [1],CC50 at 48 h [2],Activity [3],EC50 [4]
CN(C)C(=O)C(Cc1ccccc1)NC(=O)[C@H]1O[C@@H]1C(=O)NCCc1ccccn1 (relative stereo),12 °C,–,–,–
CCCC(NC(=O)C(CC(C)C)NC(=O)OCc1ccccc1)C(=O)C(=O)NCc1ccccn1 (centres undefined),–,> 50 µM,50%,< 1 µM
